Data from US12599672B2, “KRAS proteolysis targeting chimeras” (PAQ Therapeutics Inc., priority 2023, dated 2026).

Key:
Assay type in all cases: cell-based
KRAS G12D = biological target: T1, KRAS G12D (Homo sapiens, UniProt P01116, G12D); assay: KRAS G12D HiBit assay; conditions: AsPc-1-KRAS (G12D)-HiBit-KI cell, compound treatment for 24 hours; for DC50: absolute DC50
T1 construct: AsPc-1-KRAS (G12D)-HiBit-KI cell (Pharmaron); host or cells: AsPc-1-KRAS (G12D)-HiBit-KI cells (HiBiT knock-in at the endogenous KRAS locus)
T1 sequence (P01116 1-188 isoform P01116-2 G12D): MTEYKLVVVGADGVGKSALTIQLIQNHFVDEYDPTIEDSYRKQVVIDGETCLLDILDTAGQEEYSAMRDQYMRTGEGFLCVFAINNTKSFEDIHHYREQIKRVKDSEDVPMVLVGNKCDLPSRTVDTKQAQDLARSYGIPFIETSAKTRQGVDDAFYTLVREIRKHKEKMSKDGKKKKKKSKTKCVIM
Summary of the method: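 Cells were treated for 24 h with compounds in a 3-fold, 10-point dilution series from a 0.3 mM DMSO stock, then equilibrated 15 min at room temperature. KRAS G12D HiBiT levels were read by luminescence after lytic Nano-Glo HiBiT reagent with LgBiT; inhibition calculated relative to 0.1% DMSO high control.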

KRAS G12V = biological target: T2, KRAS G12V (Homo sapiens, UniProt P01116, G12V); assay: KRAS G12V HiBit assay; conditions: SW620-KRAS (G12V)-HiBit-KI cells, compound treatment for 24 hours, class symbols
T2 construct: SW620-KRAS (G12V)-HiBit-KI cell (Pharmaron); host or cells: SW620-KRAS (G12V)-HiBit-KI cells (HiBiT knock-in at the endogenous KRAS locus)
T2 sequence (P01116 1-188 isoform P01116-2 G12V): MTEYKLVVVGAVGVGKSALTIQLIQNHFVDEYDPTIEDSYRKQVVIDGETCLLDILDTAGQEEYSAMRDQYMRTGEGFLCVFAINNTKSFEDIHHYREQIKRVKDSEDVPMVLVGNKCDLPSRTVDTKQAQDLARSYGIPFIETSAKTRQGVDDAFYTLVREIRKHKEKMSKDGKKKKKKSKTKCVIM
Summary of the method: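 HiBiT-tagged KRAS G12V cells treated 24 h with compound in a 3-fold, 10-point series (0.3 mM DMSO stock); lytic HiBiT reagent with LgBiT added after 15 min room-temperature equilibration. Degradation calculated against 0.1% DMSO high control.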

KRAS = biological target: T3, KRAS (Homo sapiens, UniProt P01116); assay: KRASamp MSD assay; conditions: KE39 (KRAS amplified) cells, treated with test compounds for 24 hr, MSD readout of KRAS degradation
T3 construct: endogenous in cells; host or cells: KE39 (KRAS amplified) cells
T3 sequence (P01116 1-188 isoform P01116-2): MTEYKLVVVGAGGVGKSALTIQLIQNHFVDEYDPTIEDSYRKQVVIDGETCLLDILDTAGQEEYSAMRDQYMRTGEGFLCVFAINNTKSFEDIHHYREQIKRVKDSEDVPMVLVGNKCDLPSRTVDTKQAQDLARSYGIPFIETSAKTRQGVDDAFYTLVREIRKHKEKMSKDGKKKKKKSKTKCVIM
Summary of the method: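 KRAS-amplified KE39 cells treated with compound for 24 hr, then lysed in RIPA buffer with protease/phosphatase inhibitors. KRAS protein measured by MSD sandwich immunoassay against a recombinant WT KRAS standard curve; DC50 derived from curve fitting of degradation.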

SMILES | DC50 (KRAS G12D; class symbols) [nM] | DC50 (KRAS G12V) [nM] | DC50 (KRAS) [nM] | Dmax (KRAS G12D; class symbols) [%] | DC50 (KRAS G12D; numeric bounds given in place of class symbols) [nM]
C#Cc1c(F)ccc2cc(O)cc(-c3ncc4c(N5CCC[C@@](C)(O)C5)nc(OC[C@@]56CCCN5[C@H](COC(=O)N5CC7(CC(N8CCC(c9ccc%10c(c9)n(C)c(=O)n%10C9CCC(=O)NC9=O)CC8)C7)C5)CC6)nc4c3F)c12 (stereo partly drawn) [Compound 419, ((3S,7aS)-7a-(((7-(8-ethynyl-7-fluoro-3-hydroxynaphthalen-1-yl)-8-fluoro-4-((R)-3-hydroxy-3-methylpiperidin-1-yl)pyrido[4,3-d]pyrimidin-2-yl)oxy)methyl)hexahydro-1H-pyrrolizin-3-yl)methyl 6-(4-(1-(2,6-dioxopiperidin-3-yl)-3-methyl-2-oxo-2,3-dihydro-1H-benzo[d]imidazol-5-yl)piperidin-1-yl)-2-azaspiro[3.3]heptane-2-carboxylate] | < 100 | < 10 | < 1 | – | –
CCc1c(F)ccc2cc(O)cc(-c3ncc4c(N5CCC[C@@](C)(O)C5)nc(OC[C@@]56CCCN5[C@H](COC(=O)N5CCC(OCCCc7cccc8c7n(C)c(=O)n8C7CCC(=O)NC7=O)CC5)CC6)nc4c3F)c12 (stereo partly drawn) [Compound 2, [(3S,8S)-8-[[7-(8-Ethyl-7-fluoro-3-hydroxy-1-naphthyl)-8-fluoro-4-[(3R)-3-hydroxy-3-methyl-1-piperidyl]pyrido[4,3-d]pyrimidin-2-yl]oxymethyl]-1,2,3,5,6,7-hexahydropyrrolizin-3-yl]methyl4-[3-[1-(2,6-dioxo-3-piperidyl)-3-methyl-2-oxo-benzimidazol-4-yl]propoxy]piperidine-1-carboxylate] | < 100 | < 10 | < 1 | > 50 | –
CCc1c(F)ccc2cc(O)cc(-c3ncc4c(N5CCC[C@@](C)(O)C5)nc(OC[C@@]56CCCN5[C@H](COC(=O)N5CCC7(CCC(N8CCC(c9ccc%10c(c9)n(C)c(=O)n%10C9CCC(=O)NC9=O)CC8)C7)CC5)CC6)nc4c3F)c12 (stereo partly drawn) [Compound 455, ((3S,7aS)-7a-(((7-(8-ethyl-7-fluoro-3-hydroxynaphthalen-1-yl)-8-fluoro-4-((R)-3-hydroxy-3-methylpiperidin-1-yl)pyrido[4,3-d]pyrimidin-2-yl)oxy)methyl)hexahydro-1H-pyrrolizin-3-yl)methyl 2-(4-(1-(2,6-dioxopiperidin-3-yl)-3-methyl-2-oxo-2,3-dihydro-1H-benzo[d]imidazol-5-yl)piperidin-1-yl)-8-azaspiro[4.5]decane-8-carboxylate] | < 100 | < 10 | < 1 | – | –
CCc1c(F)ccc2cc(O)cc(-c3ncc4c(N5CCC[C@@](C)(O)C5)nc(OC[C@@]56CCCN5[C@H](COC(=O)N5C7CCC5CC(CN5CCC(c8ccc9c(c8)n(C)c(=O)n9C8CCC(=O)NC8=O)CC5)C7)CC6)nc4c3F)c12 (stereo partly drawn) [Compound 392, ((3S,7aS)-7a-(((7-(8-ethyl-7-fluoro-3-hydroxynaphthalen-1-yl)-8-fluoro-4-((R)-3-hydroxy-3-methylpiperidin-1-yl)pyrido[4,3-d]pyrimidin-2-yl)oxy)methyl)hexahydro-1H-pyrrolizin-3-yl)methyl 3-((4-(1-(2,6-dioxopiperidin-3-yl)-3-methyl-2-oxo-2,3-dihydro-1H-benzo[d]imidazol-5-yl)piperidin-1-yl)methyl)-8-azabicyclo[3.2.1]octane-8-carboxylate] | < 100 | < 10 | < 1 | – | –
CCc1c(F)ccc2cc(O)cc(-c3ncc4c(N5CCC[C@@](C)(O)C5)nc(OC[C@@]56CCCN5[C@@H](COC(=O)N5CCC(COc7ccc8c(c7)n(C)c(=O)n8C7CCC(=O)NC7=O)CC5)CC6)nc4c3F)c12 (stereo partly drawn) [Compound 314, ((3R,7aS)-7a-(((7-(8-ethyl-7-fluoro-3-hydroxynaphthalen-1-yl)-8-fluoro-4-((R)-3-hydroxy-3-methylpiperidin-1-yl)pyrido[4,3-d]pyrimidin-2-yl)oxy)methyl)hexahydro-1H-pyrrolizin-3-yl)methyl 4-(((1-(2,6-dioxopiperidin-3-yl)-3-methyl-2-oxo-2,3-dihydro-1H-benzo[d]imidazol-5-yl)oxy)methyl)piperidine-1-carboxylate] | – | > 100 | ≥ 10 | – | > 100
